Results reported in US20040077616A1, “Spirocyclopropyl amides and acids and their therapeutic applications” (priority 2002, published 2004).

How the values were obtained:
CD-1 mice [1] = assay: Subcutaneous Pentylenetetrazole (PTZ) Seizure Procedure; format: in vivo; conditions: Mus musculus; PTZ 85 mg/kg s.c., compound p.o. 30 minutes prior to PTZ injection, linear regression; read-out: ED50 (dose at which 50% of the mice were protected from tonic seizures)
Method: (§1) Adult, male, CD-1 mice (22-25 grams) were obtained from Charles River Laboratories (Portage, Mich.) and housed at Abbott Laboratories (Abbott Park) under standard lighting conditions of 12 hours on/12 hours off, with lights on at 6 a.m. Food and water were provided ad libitum and mice weighed 25-35 grams at the time of testing.
(§2) Compounds were prepared for oral administration by suspending them in a vehicle of 100 μL Tween® 80 per mL hydroxypropyl methylcellulose (2 mg/mL, Abbott Laboratories). Compound solutions were administered at a volume of 10 mL/kg, p.o.
The method used was similar to that of E. A. Swinyard, General principles: Experimental selection, quantification and evaluation of anti-convulsants, Anti-epileptic Drugs, Third Edition, R. Levey, et al., Editors. 1989, Raven Press Ltd: New York. During the experiment the mice were housed individually in clear polycarbonate cages for observation. […] Seizures were induced by the subcutaneous injection of pentylenetetrazole (PTZ, 85 mg/kg) just below the nape of the neck. […] A total of 20 mice were used in each group. The ED50for the compounds were calculated using linear regression and represent the dose at which 50% of the mice were protected from tonic seizures.

CD-1 mice [2] = assay: Maximal Electroshock Procedure; format: in vivo; conditions: Mus musculus, po, p.o. 30 minutes prior to electrical stimulation, PROBIT analysis, read-out: ED50 (dose at which 50% of the mice were protected from tonic seizures)
Method: as §1, §2
The method used was similar to that of E. A. Swinyard, General principles: Experimental selection, quantification and evaluation of anti-convulsants, Anti-epileptic Drugs, Third Edition, R. Levey, et al., Editors. 1989, Raven Press Ltd: New York. Mice were pretreated orally with compounds of the present invention 30 minutes prior to electrical stimulation. Electrical stimulation consisted of pulsed electrical current (50 mA, 0.4 second duration, pulse width 0.5 msec, 60 pulses/sec) applied via corneal electrodes to induce seizure. The stimulation was delivered with an ECT Unit (Ugo Basile #7801). […] The percent protection from tonic seizures was calculated by dividing the number of protected mice by the total number in the group. […]

With `CCCC(CCC)C(=O)O` [Valproate] the ED50 (CD-1 mice [1]) was 1800 µmol/kg and the ED50 (CD-1 mice [2]) was 1200 µmol/kg.
